From PMC11292009, “Mapping protein binding sites by photoreactive fragment pharmacophores” (Communications Chemistry, 2024)
Where “and” joins values, the source holds several entries; their conditions need not be identical. Equal entries are not always repeated.

Legend:
Assay type in all cases: binding
myoglobin (Myo) = assay: Intact protein MS photoaffinity labeling screen, myoglobin; conditions: intact protein MS after 10 min irradiation
Method in brief: (§1)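 Each fragment was placed in its own well and incubated with the protein for 15 min to allow non-covalent binding. Samples were then analysed directly from the plate by intact protein mass spectrometry, and labeling was scored as mass additions on the protein, reported as labeling %.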

BRD4-BD1 = tested on: T1, BRD4-BD1; assay: Intact MS photoaffinity labeling screen, BRD4-BD1 (302 nm, LCMS-TOF); conditions: for MS labeling percentage, BRD4: BRD4-BD1, 302 nm 10 min; for BRD4-BD1: experimental hit status flag (0/1); for experimental hit status BRD4-BD1: 0/1 flag
T1 construct: screened the PhP library against the first bromodomain of BRD4 (BRD4-BD1); purchased GSK/GenScript
Method in brief: (§2)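 Labeling detected as mass additions in deconvoluted intact-protein LCMS-TOF spectra. Protein at 1 μM in PBS was first mixed with one fragment per well on ice for 15 min, followed by 10 min UV exposure at 302 nm.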

[1] = tested on: CA, Lyo, Myo, BRD4-BD1, KRas G12D, STAT5B-NTD; assay: Intact MS labeling compared over all protein targets; conditions: for Labeling of the other protein targets (vs. preferred target): each of the other targets
Protocol: Using a plate-based format with one fragment per well, each fragment was incubated with the target proteins for 15 min to allow for the formation of non-covalent interactions. The plate was then irradiated at 302 or 365 nm for 10 min to enable the bound fragments to crosslink to the protein[26]. Finally, the results were directly analyzed from the plate using intact protein mass spectrometry by observing the mass additions that correspond to successful labeling (Fig. 2c, for labeling % values see Supplementary data). The library was first characterized against three benchmark proteins like carbonic anhydrase (CA), lysozyme (Lyo), and myoglobin (Myo).
The PhP library was screened against BRD4-BD1 and KRas^G12D as follows. Using a Labcyte Echo® 555 Liquid Handler, 150 nL of fragment solution (20 mM) was transferred into a Greiner 384 low-volume plate (white) to prepare the probe plate. The probe plate was placed on ice. 15 μL of protein stock solution (1 μM BRD4-BD1 (GSK/GenScript) or KRas^G12D (GSK/GenScript) in PBS buffer) was dispensed into wells containing fragments. The plate was left on ice for 15 min for incubation, then irradiated at 302 nm for 10 min, and centrifuged (1000 rpm, 1 min) to remove any bubbles. The plate was then analyzed by LCMS-TOF mass spectrometry (Agilent 1200 series liquid chromatography with Agilent Bio-HPLC PLRP-S (1000 Å, 5 µm × 50 mm × 1.0 mm, PL1312-1502) reverse phase HPLC column at 70 °C equipped with an Agilent G6224 time-of-flight (ToF), see Supplementary Note 2 for the full protocols). The deconvoluted spectra were analyzed using R Studio software.
During the analysis, the column temperature was maintained at a constant 60 °C, and a sample volume of 3 µL was injected for each analysis. Data acquisition was conducted in positive ion mode within the m/z 100–2000 (mass-to-charge ratio) range. For the full protocol and spectra of the hits, see Supplementary Note 2.

KRas^G12D = tested on: T2, KRas^G12D; assay: Intact MS photoaffinity labeling screen, KRas G12D (302 nm, LCMS-TOF); conditions: for MS labeling percentage, KRas: KRas G12D, 302 nm 10 min; for KRAS-G12D: experimental hit status flag (0/1); for experimental hit status KRAS-G12D: 0/1 flag
T2 construct: purchased GSK/GenScript
Method in brief: as §2

lysozyme (Lyo) = assay: Intact protein MS photoaffinity labeling screen, lysozyme; conditions: intact protein MS after 10 min irradiation
Method in brief: as §1

[2] = tested on: carbonic anhydrase II (CA); assay: Intact protein MS photoaffinity labeling screen, carbonic anhydrase; conditions: intact protein MS after 10 min irradiation
Method in brief: as §1

STAT5B-NTD [3] = tested on: T3, STAT5B-NTD; assay: Intact MS photoaffinity labeling screen, STAT5B-NTD (365 nm, UHPLC-MS); conditions: for MS labeling percentage, STAT5B: STAT5B-NTD, 365 nm 10 min, no photocatalyst; for STAT5B-NTD: experimental hit status flag (0/1); for experimental hit status STAT5B-NTD: 0/1 flag;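 as to MS labeling percentage, STAT5B: 0.17 µL of 100 mM DMSO fragment stock added to the protein sample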
T3 construct: His-SUMO (N, cleaved yes); made in house; host or cells: E. coli BL21 RILP
Method in brief: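 UV irradiation at 365 nm for 10 min at 4 °C. Labeling read by intact-protein UHPLC-MS, positive ion mode, m/z 100–2000.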

STAT5B-NTD [4] = tested on: T3, STAT5B-NTD; assay: Intact MS labeling screen, STAT5B-NTD conjugated with photocatalyst Ir-G2-PEG3-COOH (450 nm); conditions: 450 nm 10 min;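 also: 0.14 µL of 100 mM DMSO fragment stock added to the conjugate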
Method in brief: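 Ir-G2-PEG3-COOH photocatalyst (10 eq) activated 30 min with EDC/NHS/BOP, then conjugated to STAT5B-NTD (7 µM) overnight at RT or 1 h at 37 °C in dark. PhP added, 1 h dark, then 450 nm irradiation 10 min at 4 °C; labeling read by intact LC-MS, positive ion mode, m/z 100–2000.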

[5] = hit flag 1/0, sheet PhP, photoaffinity labeling screen
[6] = PhP library sheet "PhP", binary flag printed as 0 or 1, key not given
[7] = hit status flag, 1 = hit, 0 = no hit

SMILES	MS labeling percentage, Myo (myoglobin (Myo)) [%]	MS labeling percentage, BRD4 (BRD4-BD1) [%]	MS labeling percentage, KRas (KRas^G12D) [%]	MS labeling percentage, Lyo (lysozyme (Lyo)) [%]	MS labeling percentage, CA [2] [%]	MS labeling percentage, STAT5B (STAT5B-NTD [3]) [%]	MS labeling percentage, STAT5B+photocat (STAT5B-NTD [4]) [%]	experimental hit status BRD4-BD1 (BRD4-BD1)	experimental hit status KRAS-G12D (KRas^G12D)	experimental hit status STAT5B-NTD (STAT5B-NTD [3])	BRD4-BD1 (experimental hit status) (BRD4-BD1; [6])	KRAS-G12D (experimental hit status) (KRas^G12D; [6])	STAT5B-NTD (experimental hit status) (STAT5B-NTD [3]; [6])	other results
CC(Cc1ccc(O)c(O)c1)NC(=O)CCC1(C)N=N1 (stereo not drawn) [PhP001, N1=NC1(C)CCC(=O)NC(C)Cc2ccc(O)c(O)c2]	0.2	0.6	0	19.2	0	0	0	–	–	–	–	–	–	BRD4-BD1 (BRD4-BD1): 0; Labeling of the other protein targets (vs. preferred target) [1]: > 1% and < 1%; KRAS-G12D (KRas^G12D): 0; STAT5B-NTD (STAT5B-NTD [3]): 0
Cn1ccnc1CCNC(=O)CCC1(C)N=N1 [PhP003, Cn1ccnc1CCNC(=O)CCC2(C)N=N2]	0.2	1.1	0.8	0	4.7	0	0.8	–	–	–	–	–	–	BRD4-BD1 (BRD4-BD1): 0; Labeling of the other protein targets (vs. preferred target) [1]: > 1.1% and < 1.1%; KRAS-G12D (KRas^G12D): 0; STAT5B-NTD (STAT5B-NTD [3]): 0
CC1(CCC(=O)NC2CCN(c3ccc(F)cc3)CC2)N=N1 [PhP012, N1=NC1(C)CCC(=O)NC2CCN(CC2)c3ccc(F)cc3]	1	2.8	15.8	2.6	0.9	0	1	–	–	–	–	–	–	BRD4-BD1 (BRD4-BD1): 0; Labeling of the other protein targets (vs. preferred target) [1]: > 3% and < 3%; KRAS-G12D (KRas^G12D): 0; STAT5B-NTD (STAT5B-NTD [3]): 0
COc1ccc(S(=O)(=O)N2CCC(NC(=O)CCC3(C)N=N3)CC2)cc1 [PhP018, COc1ccc(cc1)S(=O)(=O)N2CCC(CC2)NC(=O)CCC3(C)N=N3]	19.9	65.5	42	3.7	17.7	0	0.7	0	0	0	–	–	–	Number of proteins labeled ([1]; of the six protein targets): four
COc1ccc(CCNC(=O)CCC2(C)N=N2)c2ccccc12 [PhP034, c1cccc(c12)c(OC)ccc2CCNC(=O)CCC3(C)N=N3]	1.7	10.6	67.8	1.7	4.7	0	1.1	0	0	0	–	–	–	Number of targets labeled in higher than 10% amount ([1]; of the six protein targets): two
CC1(CCC(=O)NCCNS(=O)(=O)c2cccc([N+](=O)[O-])c2)N=N1 [PhP035, N1=NC1(C)CCC(=O)NCCNS(=O)(=O)c2cccc(c2)N(=O)=O]	1.3	3.7	2	0.3	1.8	0	9.7	0	0	0	–	–	–	Labeling efficiency over all protein targets (mean ± spread) [1]: 1.5 ± 1.2%
Cc1cccc(-c2cnc(CNC(=O)CCC3(C)N=N3)[nH]2)c1 [PhP037, Cc1cccc(c1)-c2cnc([nH]2)CNC(=O)CCC3(C)N=N3]	1.4	4.8	11.2	0	0.9	2	1.5	0	0	0	–	–	–	Labeling efficiency over all protein targets (mean ± spread) [1]: 3.4 ± 3.8%
COc1ccc(OC)c(C(O)C(C)NC(=O)CCC2(C)N=N2)c1 (stereo not drawn) [PhP038, COc1ccc(OC)c(c1)C(O)C(C)NC(=O)CCC2(C)N=N2]	1.1	25.5	62.1	3.6	3.6	4.8	5.1	–	–	–	–	–	–	BRD4-BD1 (experimental hit status) (BRD4-BD1; [5]): 0; Number of targets labeled in higher than 10% amount ([1]; of the six protein targets): two; KRAS-G12D (experimental hit status) (KRas^G12D; [5]): 0; STAT5B-NTD (experimental hit status) (STAT5B-NTD [3]; [5]): 0
Cc1nnc(CNC(=O)CCC2(C)N=N2)[nH]1 [PhP093, Cc1nnc([nH]1)CNC(=O)CCC2(C)N=N2]	0.2	0.5	0.3	0	0.5	2	0.5	–	–	–	0	0	0	–
CC1(CCC(=O)NCCNC(=O)Nc2ccccc2)N=N1 [PhP094, N1=NC1(C)CCC(=O)NCCNC(=O)Nc2ccccc2]	0.1	1.1	0.5	0.9	0.4	1	2.1	–	–	–	0	0	0	–
Cn1nccc1C(=O)NCCNC(=O)CCC1(C)N=N1 [PhP095, Cn1nccc1C(=O)NCCNC(=O)CCC2(C)N=N2]	0.1	0.4	0.1	0	0.2	0	2.4	–	–	–	0	0	0	–
CC1(CCC(=O)NCCN2CCN(c3ccc(C(F)(F)F)cn3)CC2)N=N1 [PhP096, N1=NC1(C)CCC(=O)NCCN2CCN(CC2)c3ccc(cn3)C(F)(F)F]	0.1	0.3	0	0	0	0	1.1	–	–	–	0	0	0	–
CN(C)CC(=O)Nc1cccc(NC(=O)CCC2(C)N=N2)c1 [PhP100, CN(C)CC(=O)Nc1cccc(c1)NC(=O)CCC2(C)N=N2]	0.1	0.6	0	0	0.1	1	0	–	–	–	–	–	–	BRD4-BD1 (experimental hit status) (BRD4-BD1; [7]): 0; KRAS-G12D (experimental hit status) (KRas^G12D; [7]): 0; STAT5B-NTD (experimental hit status) (STAT5B-NTD [3]; [7]): 0
